Laboratory results taken from PubChem BioAssay AID256 (DTP/NCI, 2004).
Where “and” joins values, the source holds several entries; their conditions need not be identical. Equal values may be shown once. Inconclusive results and toxic doses are left out.

System: CD2F1 mice, L1210 leukemia ip, survival T/C
Experiment: NCI In Vivo Anticancer Drug Screen. Data for tumor model L1210 Leukemia (intraperitoneal) in CD2F1 (CDF1) mice
Conditions: higher = longer survival
How it was run: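 Mice carrying a transplanted tumor received test compound or vehicle alone. The value is the measurement in the treated group divided by that in the vehicle-treated control group.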

[1] = endpoint: mean survival time, dose: 100.0 mg/kg/injection, schedule: Q01DX009 (ip), vehicle: saline with Tween-80
[2] = endpoint: mean survival time, dose: 100.0 mg/kg/injection, schedule: Q04DX003 (ip), vehicle: saline with Tween-80
[3] = endpoint: mean survival time, dose: 200.0 mg/kg/injection, schedule: Q01DX009 (ip), vehicle: saline with Tween-80
[4] = endpoint: mean survival time, dose: 200.0 mg/kg/injection, schedule: Q04DX003 (ip), vehicle: saline with Tween-80
[5] = endpoint: mean survival time, dose: 400.0 mg/kg/injection, schedule: Q01DX009 (ip), vehicle: saline with Tween-80
[6] = endpoint: mean survival time, dose: 400.0 mg/kg/injection, schedule: Q04DX003 (ip), vehicle: saline with Tween-80
[7] = endpoint: mean survival time, dose: 100.0 mg/kg/injection, schedule: Q01DX009 (ip), vehicle: other
[8] = endpoint: mean survival time, dose: 200.0 mg/kg/injection, schedule: Q01DX009 (ip), vehicle: other
[9] = endpoint: mean survival time, dose: 50.0 mg/kg/injection, schedule: Q01DX009 (ip), vehicle: saline
[10] = endpoint: mean survival time, dose: 50.0 mg/kg/injection, schedule: Q01DX009 (ip), vehicle: Klucel (hydroxypropylcellulose) (HPC)
[11] = endpoint: mean survival time, dose: 75.0 mg/kg/injection, schedule: Q04DX003 (ip), vehicle: saline
[12] = endpoint: mean survival time, dose: 150.0 mg/kg/injection, schedule: Q04DX003 (ip), vehicle: saline
[13] = endpoint: mean survival time, dose: 300.0 mg/kg/injection, schedule: Q04DX003 (ip), vehicle: saline
[14] = endpoint: mean survival time, dose: 100.0 mg/kg/injection, schedule: Q01DX001 (ip), vehicle: saline with Tween-80
[15] = endpoint: mean survival time, dose: 200.0 mg/kg/injection, schedule: Q01DX001 (ip), vehicle: saline with Tween-80
[16] = endpoint: mean survival time, dose: 100.0 mg/kg/injection, schedule: Q01DX009 (ip), vehicle: Klucel (hydroxypropylcellulose) (HPC)
[17] = endpoint: mean survival time, dose: 100.0 mg/kg/injection, schedule: Q01DX001 (ip), vehicle: saline
[18] = endpoint: mean survival time, dose: 200.0 mg/kg/injection, schedule: Q01DX001 (ip), vehicle: saline
[19] = endpoint: mean survival time, dose: 50.0 mg/kg/injection, schedule: Q01DX009 (ip), vehicle: saline with Tween-80
[20] = endpoint: mean survival time, dose: 25.0 mg/kg/injection, schedule: Q01DX009 (ip), vehicle: water
[21] = endpoint: mean survival time, dose: 50.0 mg/kg/injection, schedule: Q01DX009 (ip), vehicle: water
[22] = endpoint: mean survival time, dose: 100.0 mg/kg/injection, schedule: Q01DX009 (ip), vehicle: water
[23] = endpoint: mean survival time, dose: 200.0 mg/kg/injection, schedule: Q01DX009 (ip), vehicle: water

## CC1=NN(c2ccccc2)C(=O)C1CC1C(=O)N(c2ccccc2)N=C1C (stereo not given)
[1]
  T/C: 101 % of control
[2]
  T/C: 96 % of control
[3]
  T/C: 107 % of control
[4]
  T/C: 92 % of control
[5]
  T/C: 101 % of control
[6]
  T/C: 88 % of control

## c1ccc2ncccc2c1
[7]
  T/C: 103 % of control
[8]
  T/C: 101 % of control

## C=C(OP(=O)(OC)OC)Sc1ccccc1C
endpoint: median survival time, dose: 0.38 mg/kg/injection, schedule: Q01DX009 (ip), vehicle: Klucel (hydroxypropylcellulose) (HPC)
  T/C: 101 % of control
endpoint: median survival time, dose: 0.75 mg/kg/injection, schedule: Q01DX009 (ip), vehicle: Klucel (hydroxypropylcellulose) (HPC)
  T/C: 101 % of control

## Cc1c2c(O)c(O)c(O)cc2c[n+]2ccccc12
[9]
  T/C: 101 % of control

## CCCCCCCCCCCCCCCCCC(=O)NCCN(CC)CC
endpoint: mean survival time, dose: 75.0 mg/kg/injection, schedule: Q01DX001 (ip), vehicle: saline
  T/C: 101 % of control

## Cc1cccc(Cl)c1NC(=O)CS
[2]
  T/C: 98 % of control
[4]
  T/C: 98 % of control
[6]
  T/C: 98 % of control

## COc1nc(N)nc2c1nnn2C1OC(CO)C(O)C1O (stereo not given)
[10]
  T/C: 117 % of control

## O=C(Nc1cc2ccccc2o1)O/N=C/c1ccccn1
[2]
  T/C: 92 % of control
[4]
  T/C: 92 % of control
[6]
  T/C: 86 % of control

## CC1(C)C=CC(C)(C)c2c(NS(=O)(=O)c3ccccc3)ccc(NS(=O)(=O)c3ccccc3)c21
[2]
  T/C: 98 % of control
[6]
  T/C: 96 % of control

## COc1ccc(C(=CC2=CC(=O)C3=C(CCCC3)C2=O)c2ccc(OC)cc2)cc1
endpoint: mean survival time, dose: 100.0 mg/kg/injection, schedule: Q04DX003 (ip), vehicle: saline sonified
  T/C: 96 % of control
endpoint: mean survival time, dose: 200.0 mg/kg/injection, schedule: Q04DX003 (ip), vehicle: saline sonified
  T/C: 100 % of control
endpoint: mean survival time, dose: 400.0 mg/kg/injection, schedule: Q04DX003 (ip), vehicle: saline sonified
  T/C: 97 % of control

## O=C1C(CO)=C[C@@H](O)[C@H]2O[C@@H]12
endpoint: mean survival time, dose: 100.0 mg/kg/injection, schedule: Q04DX003 (ip), vehicle: saline
  T/C: 100 % of control
endpoint: mean survival time, dose: 200.0 mg/kg/injection, schedule: Q04DX003 (ip), vehicle: saline
  T/C: 102 % of control
endpoint: mean survival time, dose: 400.0 mg/kg/injection, schedule: Q04DX003 (ip), vehicle: saline
  T/C: 102 % of control

## Cc1ccc(Cl)c2nc(-c3ccccc3)ccc12
endpoint: mean survival time, dose: 37.5 mg/kg/injection, schedule: Q01DX009 (ip), vehicle: saline
  T/C: 105 % of control
endpoint: mean survival time, dose: 75.0 mg/kg/injection, schedule: Q01DX009 (ip), vehicle: saline
  T/C: 116 % of control
[11]
  T/C: 112 % of control
endpoint: mean survival time, dose: 150.0 mg/kg/injection, schedule: Q01DX009 (ip), vehicle: saline
  T/C: 101 % of control
[12]
  T/C: 103 % of control
[13]
  T/C: 93 % of control

## C/C(CCc1ccccc1)=N/O
[7]
  T/C: 100 % of control
[8]
  T/C: 103 % of control
endpoint: mean survival time, dose: 400.0 mg/kg/injection, schedule: Q01DX009 (ip), vehicle: other
  T/C: 101 % of control

## CC(CCC(C)(C)O)C1CCC2C3C(O)CC4CCCCC4(C)C3CC(O)C12C (stereo not given)
[6]
  T/C: 88 % of control

## COc1cccc(CCN)c1
endpoint: mean survival time, dose: 18.75 mg/kg/injection, schedule: Q01DX009 (ip), vehicle: saline sonified
  T/C: 98 % of control
endpoint: mean survival time, dose: 37.5 mg/kg/injection, schedule: Q01DX009 (ip), vehicle: saline sonified
  T/C: 97 % of control
endpoint: mean survival time, dose: 37.5 mg/kg/injection, schedule: Q01DX009 (ip), vehicle: saline with Tween-80
  T/C: 108 % of control
endpoint: mean survival time, dose: 75.0 mg/kg/injection, schedule: Q01DX009 (ip), vehicle: saline sonified
  T/C: 97 % of control
endpoint: mean survival time, dose: 75.0 mg/kg/injection, schedule: Q01DX009 (ip), vehicle: saline with Tween-80
  T/C: 103 % of control

## CCCCCCCCC(=O)NCCCNC(=O)CCCCCCCC
[11]
  T/C: 88 % of control
[12]
  T/C: 88 % of control
[13]
  T/C: 103 % of control

## c1ccc(-c2c[s+]cc(-c3ccccc3)c2)cc1
endpoint: mean survival time, dose: 50.0 mg/kg/injection, schedule: Q01DX001 (ip), vehicle: saline with Tween-80
  T/C: 109 % of control
[14]
  T/C: 104 % of control
[15]
  T/C: 110 % of control

## COC(=O)c1c(C(=O)OC)c(-c2ccc(Cl)c(Cl)c2)n2c1CCC2
[10]
  T/C: 91 % of control
[16]
  T/C: 88 % of control
endpoint: mean survival time, dose: 200.0 mg/kg/injection, schedule: Q01DX009 (ip), vehicle: Klucel (hydroxypropylcellulose) (HPC)
  T/C: 98 % of control

## CCS(=O)(=O)OCCCNCCCOS(=O)(=O)CC
endpoint: mean survival time, dose: 12.5 mg/kg/injection, schedule: Q01DX001 (ip), vehicle: saline
  T/C: 103 % of control
endpoint: mean survival time, dose: 25.0 mg/kg/injection, schedule: Q01DX001 (ip), vehicle: saline
  T/C: 105 % of control
[17]
  T/C: 160 % of control
[18]
  T/C: 186 % of control

## O=C1CSC(=S)N1/N=C/c1ccc(Cl)c([N+](=O)[O-])c1
[1]
  T/C: 92 % of control
[2]
  T/C: 92 % of control
[3]
  T/C: 100 % of control
[4]
  T/C: 95 % of control
[5]
  T/C: 90 % of control
[6]
  T/C: 86 % of control

## CN(C)N=Nc1cn[nH]c1C(N)=O
[16]
  T/C: 172 % of control

## COc1cccc(OC)c1C1=CCCCCC1
[14]
  T/C: 96 % of control
[1]
  T/C: 101 % of control
[15]
  T/C: 98 % of control
[3]
  T/C: 97 % of control
endpoint: mean survival time, dose: 400.0 mg/kg/injection, schedule: Q01DX001 (ip), vehicle: saline with Tween-80
  T/C: 93 % of control
[5]
  T/C: 104 % of control

## O=C(O)c1cnc2cc(Cl)ccc2n1
[19]
  T/C: 103 % of control
[1]
  T/C: 103 % of control
[2]
  T/C: 98 % of control
[4]
  T/C: 100 % of control

## OCC(O)C1OC(OCc2ccccc2)C(O)C(O)C1O (stereo not given)
[17]
  T/C: 101 % of control
[18]
  T/C: 98 % of control
endpoint: mean survival time, dose: 400.0 mg/kg/injection, schedule: Q01DX001 (ip), vehicle: saline
  T/C: 98 % of control

## CCOC(=O)C1C(=O)N(c2ccccc2)C(=O)N1C (stereo not given)
endpoint: mean survival time, dose: 12.5 mg/kg/injection, schedule: Q01DX009 (ip), vehicle: water
  T/C: 94 % of control
[20]
  T/C: 93 % of control
[21]
  T/C: 94 % of control
[22]
  T/C: 98 % of control
[23]
  T/C: 100 % of control

## O=S1OCC2(CO1)COS(=O)OC2 (stereo not given)
endpoint: mean survival time, dose: 3.13 mg/kg/injection, schedule: Q01DX001 (ip), vehicle: saline with Tween-80
  T/C: 108 % of control
endpoint: mean survival time, dose: 6.25 mg/kg/injection, schedule: Q01DX001 (ip), vehicle: saline with Tween-80
  T/C: 100 % of control

## CCOC(=O)Oc1c(OC)cc(C(=O)O[C@@H]2C[C@@H]3CN4CCc5c([nH]c6cc(OC)ccc56)[C@H]4C[C@@H]3[C@H](C(=O)OC)[C@H]2OC)cc1OC
endpoint: mean survival time, dose: 25.0 mg/kg/injection, schedule: Q01DX009 (ip), vehicle: saline with Tween-80
  T/C: 104 % of control
[1]
  T/C: 94 % of control
[2]
  T/C: 103 % of control

## O=C(Nc1nc(-c2ccccc2)cs1)Nc1cccc(Cl)c1Cl
[19]
  T/C: 101 % of control
[1]
  T/C: 90 % of control
[3]
  T/C: 97 % of control

## CC1(C)CC(O)(Cc2ccccc2)C(=O)c2ccccc21 (stereo not given)
[20]
  T/C: 95 % of control
[21]
  T/C: 92 % of control
[22]
  T/C: 95 % of control
[23]
  T/C: 95 % of control
endpoint: mean survival time, dose: 400.0 mg/kg/injection, schedule: Q01DX009 (ip), vehicle: water
  T/C: 97 % of control

## O=C1c2c(O)cccc2-c2nn(CCNCCO)c3ccc(NCCNCCO)c1c23
endpoint: median survival time, dose: 1.38 mg/kg/injection, schedule: Q01DX009 (ip), vehicle: water
  T/C: 170 % of control
endpoint: median survival time, dose: 2.75 mg/kg/injection, schedule: Q01DX009 (ip), vehicle: water
  T/C: 240 % of control and 370 % of control
endpoint: median survival time, dose: 5.5 mg/kg/injection, schedule: Q01DX009 (ip), vehicle: water
  T/C: 222 % of control and 361 % of control
endpoint: median survival time, dose: 11.0 mg/kg/injection, schedule: Q01DX009 (ip), vehicle: water
  T/C: 101 % of control and 107 % of control
endpoint: median survival time, dose: 22.0 mg/kg/injection, schedule: Q01DX009 (ip), vehicle: water
  T/C: 87 % of control

## CC[S+](CC)CC
[9]
  T/C: 100 % of control
endpoint: mean survival time, dose: 100.0 mg/kg/injection, schedule: Q01DX009 (ip), vehicle: saline
  T/C: 97 % of control
